A short description of this series: in vivo. The note with it: rat.

The bioavailability is the share of a dose that reaches the circulation, judged against a reference dose that is usually intravenous. Low values mean little systemic uptake, high ones much systemic uptake. For `COc1cc(C(=O)NS(=O)(=O)c2ccccc2C)ccc1Cc1cn(C)c2ccc(NC(=O)OC3CCCC3)cc12` [ZAFIRLUKAST], the bioavailability is 25%. The compound `CC(C)(O)c1ccccc1CC[C@@H](SCC1(CC(=O)O)CC1)c1cccc(/C=C/c2ccc3ccc(Cl)cc3n2)c1` [MONTELUKAST] displayed a bioavailability of 63%.

Source of the values: ChEMBL document CHEMBL1152359, “Synthesis and structure-activity relationships of gamma-carboline derivatives as potent and selective cysLT(1) antagonists” (Bioorg Med Chem Lett, 2009).
